The values that follow come from US7598234B2, “Steroid derived antibiotics” (Brigham Young University, priority 1998, dated 2009).

In brackets after ≈: the same amount, converted by molar mass.

Series [1] concerns E. coli (ATCC 10798). Description: MIC and MBC measurement with E. coli (ATCC 10798). Format: cell-based, Escherichia coli. The text has this:
(§1) General: Microorganisms. Reference strains were purchased from the American Type Culture Collection (Rockville, Md.) or Bactrol disks from Difeo Laboratories (Detroit, Mich.). The following specific ATCC strains were used: 10798 Escherichia coli, 25922 Escherichia coli, 13883 Klebsiella pneumoniae, 27853 Pseudomonas aeruginosa, 14028 Salmonella typhimurium, 29212 Enterococcus faecalis, 25923 Staphylococcus aureus, 19615 Streptococcus pyogenes, and 90028 Candida albicans. Bacterial strains were maintained on Mueller-Hinton agar plates, and Candida albicans was maintained on Sabouraud Dextrose agar plates.
(§2) Tryptic soy broth (TSB) was made by dissolving 27.5 grams of tryptic soy broth without dextrose (DIFCO Laboratories) in 1 liter of deionized water and sterilizing at 121° C. for 15 minutes. Solid agar (TSA) plates were made by dissolving 6.4 grams of tryptic soy broth and 12 grams of agar (purified grade, Fischer Scientific) in 800 mL of deionized water and sterilizing at 121° C. for 20 minutes. Aliquots (20 mL) of the homogeneous solution were then poured in sterile plastic petri dishes (100×15 mm, Fisher Scientific). Solutions of compounds were made by dissolving the HCl salt of the respective compound into an appropriate amount of deionized and sterilized water followed by microfiltration.
(§3) Aliquots of 1 mL of the suspension were added to test tubes containing 1 mL TSB and incrementally varied concentrations of cholic acid derivatives and/or erythromycin or novobiocin. In the sensitization experiments, erythromycin or novobiocin were added 15 minutes later than the cholic acid derivatives. The samples were subjected to stationary incubation at 37° C. for 24 hours. Sample turbidity was determined by measuring absorption at 760 nm (HP 8453 UV-Visible Chemstation, Hewlett Packard). Additionally, an alliquot from each of the samples showing no measurable turbidity was subcultured on TSA plates (alliquots were diluted to provide fewer than 300 CFU). Colonies that grew on the subculture after overnight incubation were counted and the number of CFU/mL in the samples were calculated. The calculated values were compared to the number of CFU/mL in the original inoculum.

Series [2] deals with E. coli (ATCC 25922). Description: Sensitization to erythromycin, E. coli (ATCC 25922). In kind it is cell-based, Escherichia coli. The method, then: FICs can be performed by checkerboard titrations of compounds in one dimension of a microtiter plate, and of antibiotics in the other dimension, for example. The FIC is calculated by looking at the impact of one antibiotic on the MIC of the other and vice versa. […] Preferably, an FIC of less than 0.5 is obtained for synergism. As used herein, FIC can be determined as follows:
as §3
Concentrations of 0.5, 1.0 or 3.0 μg/mL of these antibiotics were used, and the concentrations of the cholic acid derivatives required to inhibit bacterial growth of Gram-negative strains were determined.
(§4) Minimum inhibition concentrations (MIC) and minimum hemolytic concentrations (MHC) were measured as described in Li et al., Antimicrob. Agents. Chemother., 1999, 43, 1347.

Series [3] concerns E. coli (ATCC 25922). Put plainly: MIC and MBC measurement with E. coli (ATCC 25922). Format: cell-based, Escherichia coli.
Excerpt: as §1, §2
as §3, with “inoculum. […]” for “inoculum.”

For series [4], the system named is E. coli (ATCC 10798). Description: Sensitization to novobiocin (concentration lowering the MIC of novobiocin), E. coli (ATCC 10798). Format: cell-based, Escherichia coli. As to the method: (§5) Alternatively, “fractional inhibitory concentration (FIC)” is also useful for determination of synergy between the compounds of the invention, or the compounds in combination with known antibiotics. FICs can be performed by checkerboard titrations of compounds in one dimension of a microtiter plate, and of antibiotics in the other dimension, for example. The FIC is calculated by looking at the impact of one antibiotic on the MIC of the other and vice versa. […] Preferably, an FIC of less than 0.5 is obtained for synergism. As used herein, FIC can be determined as follows:
as §3
(§6) Ability to permeabilize outer membrane: Compounds 11, 106, and 108-114 (FIG. 1) were tested for antibiotic activity. They were also tested for the ability to permeabilize the outer membrane of Gram-negative bacteria, causing sensitization to hydrophobic antibiotics that cannot cross the outer membrane. The permeabilization of the outer membrane was measured using erythromycin and novobiocin.
(§7) The MICs of erythromycin and novobiocin against E. coli (ATCC 10798) at 70 and >500 μg/mL were measured.

The subject of series [5] is E. coli (ATCC 10798). Description: Sensitization to erythromycin (concentration lowering the MIC of erythromycin), E. coli (ATCC 10798). In kind it is cell-based, Escherichia coli. The method, then:
as §5, §3, §6, §7

Series [6] has as its system Pseudomonas aeruginosa (ATCC 27853). Description: Sensitization to erythromycin, Pseudomonas aeruginosa (ATCC 27853). Format: cell-based. The method, then:
as §5
as §3, with “inoculum. […]” for “inoculum.”
(§8) To measure permeabilization, the FIC values for compounds 1, 2, 5, 106, 10, 112, 133, and 134 with erythromycin, novobiocin, and rifampicin were determined. Concentrations of 0.5, 1.0 or 3.0 μg/mL of these antibiotics were used, and the concentrations of the cholic acid derivatives required to inhibit bacterial growth of Gram-negative strains were determined.

Series [7] shares this test system. Put plainly: MIC and MBC measurement with Pseudomonas aeruginosa (ATCC 27853). In kind it is cell-based.
Excerpt: as §1, §2, §3

Series [8] has the same test system. Description: Sensitization to novobiocin, Pseudomonas aeruginosa (ATCC 27853). Format: cell-based. Particulars: Table 8; P. aureginosa (ATCC 27853). The method, then: as §5
as §3, with “inoculum. […]” for “inoculum.”
as §8

The procedure of series [9]: as §4
The test system of series [10] is Candida albicans ATCC 90028. Put plainly: MIC and MBC measurement with Candida albicans ATCC 90028. Format: cell-based. Particulars: Table 10.
Excerpt: as §1, §2, §3

In series [11] the test system is Enterococcus faecalis ATCC 29212. Description: MIC and MBC measurement with Enterococcus faecalis ATCC 29212. In kind it is cell-based. Particulars: Table 10.
Excerpt: as §1, §2, §3

For series [12], the system named is Klebsiella pneumonia ATCC 13883. Description: MIC and MBC measurement with Klebsiella pneumoniae ATCC 13883. Format: cell-based. Particulars: Table 10.
Excerpt: as §1, §2, §3

Series [13] has as its system Staphylococcus aureus ATCC 25923. Description: MIC and MBC measurement with Staphylococcus aureus ATCC 25923. Format: cell-based. As to conditions: Table 10; Staphylococcus aureus ATCC 25923.
Excerpt: as §1, §2
as §3, with “inoculum. […]” for “inoculum.”

Series [14] relates to Streptococcus pyrogenes ATCC 19615. Description: MIC and MBC measurement with Streptococcus pyogenes ATCC 19615. Format: cell-based. As to conditions: Table 10.
Excerpt: as §1, §2, §3

Series [15] relates to Salmonella typhimurium ATCC 14028. Put plainly: MIC and MBC measurement with Salmonella typhimurium ATCC 14028. Format: cell-based. As to conditions: Table 10.
Excerpt: as §1, §2, §3

Series [16] has as its system Gram-negative bacteria. Put plainly: Sensitization to erythromycin, ester and amide side chain compounds (Table 14). In kind it is cell-based. Particulars: in words; compared with Table 14 compounds. As to the method: as §3, §6
Ester and amide side chains: Additional compounds, for example, compounds with amide and ester side chains, were tested.

[17] abbreviates: Table 6, P. aureginosa (ATCC 27853).
Setting [18] is: Table 9, Escherichia coli (ATCC 10798).
Setting [19] is: Table 10, Escherichia coli ATCC 25922.
Where [20] appears, read: Table 10, Pseudomonas aeruginosa ATCC 27853.

With `C[C@H](CCCN(C)Cc1ccccc1)[C@H]1CC[C@H]2[C@@H]3[C@H](OCCNC(=N)N)C[C@@H]4C[C@H](OCCNC(=N)N)CC[C@]4(C)[C@H]3C[C@H](OCCNC(=N)N)[C@]12C` [Compound 4], the MBC stood at 10 µg/mL (≈ 13.3 µM) in series [1] (Table 1, E. coli (ATCC 10798)); 9 µg/mL (≈ 12 µM) in series [3] (Table 4, E. coli (ATCC 25922)); 40 µg/mL (≈ 53.1 µM) in [7] (setting [17]). For the same compound, the minimal inhibitory concentration (MIC) (in general, the lowest concentration found to suppress growth) in [1] (Table 1, E. coli (ATCC 10798)) was determined as 5 µg/mL (≈ 6.64 µM); in series [3] (Table 4, E. coli (ATCC 25922)), 6 µg/mL (≈ 7.97 µM); in series [7] (setting [17]) it was 15 µg/mL (≈ 19.9 µM). In addition, the “MIC: concentration required to lower the MIC of erythromycin from 60 μg/mL to 1 μg/mL” value in [2] (Table 5, E. coli (ATCC 25922)) stood at 1 µg/mL. In addition, the “MBC (with erythromycin)” value in [2] (Table 5, E. coli (ATCC 25922), erythromycin sensitization) came to 5 µg/mL; in [5] (Table 2, E. coli (ATCC 10798), erythromycin sensitization), 10 µg/mL; in series [6] (Table 7, P. aureginosa (ATCC 27853), erythromycin sensitization) it was 40 µg/mL. Besides, the “MIC: concentration required to lower the MIC of novobiocin from >500 μg/mL to 1 μg/mL” value in series [4] (Table 3, E. coli (ATCC 10798)) amounted to 5 µg/mL; in series [8], 6 µg/mL. Further, the “MBC (with novobiocin)” value in series [4] (Table 3, E. coli (ATCC 10798), novobiocin sensitization) came to 10 µg/mL. In [5] (Table 2, E. coli (ATCC 10798)), the “MIC: concentration required to lower the MIC of erythromycin from 70 μg/mL to 1 μg/mL” value is 1.5 µg/mL. In [6] (Table 7, P. aureginosa (ATCC 27853)), the “MIC: concentration required to lower the MIC of erythromycin from 240 μg/mL to 5 μg/mL” value was found to be 5 µg/mL.
As for `CCCCCOCCC[C@@H](C)[C@H]1CC[C@H]2[C@@H]3[C@H](OCCCN)C[C@@H]4C[C@H](OCCCN)CC[C@]4(C)[C@H]3C[C@H](OCCCN)[C@]12C` [Compound 113], in series [1] (setting [18]), the MBC came to 5.0 µg/mL (≈ 7.86 µM) and the MIC worked out at 3.0 µg/mL (≈ 4.72 µM). Further, in series [4] (setting [18]), the “(d) Concentration required to lower the MIC of novobiocin from >500 to 1 μg/mL” value was determined as 1.0 µg/mL and the “FIC values with novobiocin” value worked out at 0.27. Further, in series [5] (setting [18]), the “(a) Concentration required to lower the MIC of erythromycin from 70 to 1 μg/mL” value came to 0.8 µg/mL, the “(b) MBC with 1 μg/mL erythromycin” value was 2.0 µg/mL and the “FIC values with erythromycin” value amounted to 0.28.
On to `CCCCCCCCNCCC[C@@H](C)[C@H]1CC[C@H]2[C@@H]3[C@H](OCCCN)C[C@@H]4C[C@H](OCCCN)CC[C@]4(C)[C@H]3C[C@H](OCCCN)[C@]12C` [Compound 133], for which the “MIC (in words)” value in series [1] (FIG. 5, strain not named) is “very low”. In addition, the MHC in series [9] came to 29 µg/mL. Further, the MBC in series [10] came to 45 µg/mL (≈ 66.5 µM); in series [11], 5.5 µg/mL (≈ 8.12 µM); in series [3] (setting [19]), 3.0 µg/mL (≈ 4.43 µM); in series [12], 5.8 µg/mL (≈ 8.57 µM); in series [13], 2.0 µg/mL (≈ 2.95 µM); in series [14], 2.9 µg/mL (≈ 4.28 µM). The values for the MBC in [7] (setting [20]) and in series [15] were 3.2 µg/mL (≈ 4.73 µM) and 6.7 µg/mL (≈ 9.89 µM), respectively. Also, the MIC was 31 µg/mL (≈ 45.8 µM) in [10]; 3.1 µg/mL (≈ 4.58 µM) in series [11]; 3.0 µg/mL (≈ 4.43 µM) in [3] (setting [19]); 2.6 µg/mL (≈ 3.84 µM) in [12]; 0.4 µg/mL (≈ 0.591 µM) in series [13]; 2.3 µg/mL (≈ 3.4 µM) in series [14]. Also, the minimum inhibitory concentration (MIC) in [7] (setting [20]) was 2.0 µg/mL (≈ 2.95 µM); in [15] it was 2.6 µg/mL (≈ 3.84 µM). The FIC in [2] (Table 11, Escherichia coli ATCC 25922, erythromycin (by order)) is 0.42; in series [6] (Table 11, Pseudomonas aeruginosa ATCC 27853, erythromycin (by order)), 0.21. The “concentration required to inhibit bacterial growth with antibiotic” value in series [2] (Table 11, Escherichia coli ATCC 25922, erythromycin (by order) at 0.5, 1.0 or 3.0 μg/mL) was found to be 1.2 µg/mL; in [6] (Table 11, Pseudomonas aeruginosa ATCC 27853, erythromycin (by order) at 0.5, 1.0 or 3.0 μg/mL) it was 0.35 µg/mL.
Regarding `C[C@H](CCCO)[C@H]1CC[C@H]2[C@@H]3[C@H](N)C[C@@H]4C[C@H](N)CC[C@]4(C)[C@H]3C[C@H](N)[C@]12C` [Compound 206], the “activity as a permeabilizer” value in [16] is recorded as “ineffective as a permeabilizer”.
